Details in all cases: Compound concentration 10 µM
In assay [1] the target is T1, Alpha-2C adrenergic receptor (Homo sapiens) (UniProt P18825).
T1 sequence (whole entry): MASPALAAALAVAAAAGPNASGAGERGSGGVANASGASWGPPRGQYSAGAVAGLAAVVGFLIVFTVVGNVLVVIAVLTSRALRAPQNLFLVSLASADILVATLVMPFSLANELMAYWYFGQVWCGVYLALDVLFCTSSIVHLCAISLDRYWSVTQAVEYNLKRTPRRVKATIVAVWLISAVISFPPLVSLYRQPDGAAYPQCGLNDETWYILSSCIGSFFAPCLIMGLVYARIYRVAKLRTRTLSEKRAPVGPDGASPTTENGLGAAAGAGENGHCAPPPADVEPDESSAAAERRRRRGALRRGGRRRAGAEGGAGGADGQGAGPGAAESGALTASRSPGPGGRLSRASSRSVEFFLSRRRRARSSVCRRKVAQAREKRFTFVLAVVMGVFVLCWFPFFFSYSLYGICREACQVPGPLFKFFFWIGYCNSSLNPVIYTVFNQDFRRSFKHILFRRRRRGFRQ
Description: PDSP Primary Binding target: ADRA2C - Compounds are tested at 10 uM concentration, plate are incubated at room temperature in the dark for 90 minutes. Reaction are stopped by vacuum filtration onto 0.3% polyethyleneimine soaked filter mats using Filtermate harvester. Scintilation cocktail is then melted onto microwave-dried filters on a hot plate and the radio activity is counted in Microbia counter.

Assay [2] addresses 5-hydroxytryptamine receptor 5A (Homo sapiens) (UniProt P47898).
Description: PDSP Primary Binding target: HTR5A - Compounds are tested at 10 uM concentration, plate are incubated at room temperature in the dark for 90 minutes. Reaction are stopped by vacuum filtration onto 0.3% polyethyleneimine soaked filter mats using Filtermate harvester. Scintilation cocktail is then melted onto microwave-dried filters on a hot plate and the radio activity is counted in Microbia counter.
Assay [3] addresses Sodium-dependent serotonin transporter (Homo sapiens) (UniProt P31645).
Description: PDSP Primary Binding target: SLC6A4 - Compounds are tested at 10 uM concentration, plate are incubated at room temperature in the dark for 90 minutes. Reaction are stopped by vacuum filtration onto 0.3% polyethyleneimine soaked filter mats using Filtermate harvester. Scintilation cocktail is then melted onto microwave-dried filters on a hot plate and the radio activity is counted in Microbia counter.
The target of assay [4] is T2, Muscarinic acetylcholine receptor M4 (Homo sapiens) (UniProt P08173).
T2 sequence (whole entry): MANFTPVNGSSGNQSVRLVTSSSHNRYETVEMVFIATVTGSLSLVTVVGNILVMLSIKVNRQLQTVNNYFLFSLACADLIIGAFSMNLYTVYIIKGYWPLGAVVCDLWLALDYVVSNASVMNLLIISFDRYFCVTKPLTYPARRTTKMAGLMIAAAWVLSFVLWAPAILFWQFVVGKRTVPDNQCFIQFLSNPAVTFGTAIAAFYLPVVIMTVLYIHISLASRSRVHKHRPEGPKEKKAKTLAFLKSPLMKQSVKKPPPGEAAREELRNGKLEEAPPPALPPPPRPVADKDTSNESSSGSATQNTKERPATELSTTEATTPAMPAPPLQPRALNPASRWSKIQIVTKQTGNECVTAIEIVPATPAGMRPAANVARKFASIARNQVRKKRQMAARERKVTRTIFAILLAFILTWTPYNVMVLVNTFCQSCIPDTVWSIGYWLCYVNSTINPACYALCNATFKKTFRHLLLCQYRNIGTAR
Description: PDSP Primary Binding target: CHRM4 - Compounds are tested at 10 uM concentration, plate are incubated at room temperature in the dark for 90 minutes. Reaction are stopped by vacuum filtration onto 0.3% polyethyleneimine soaked filter mats using Filtermate harvester. Scintilation cocktail is then melted onto microwave-dried filters on a hot plate and the radio activity is counted in Microbia counter.

In assay [5] the target is 5-hydroxytryptamine receptor 1E (Homo sapiens) (UniProt P28566).
Chain of 5-hydroxytryptamine receptor 1E (Homo sapiens) (P28566 whole entry): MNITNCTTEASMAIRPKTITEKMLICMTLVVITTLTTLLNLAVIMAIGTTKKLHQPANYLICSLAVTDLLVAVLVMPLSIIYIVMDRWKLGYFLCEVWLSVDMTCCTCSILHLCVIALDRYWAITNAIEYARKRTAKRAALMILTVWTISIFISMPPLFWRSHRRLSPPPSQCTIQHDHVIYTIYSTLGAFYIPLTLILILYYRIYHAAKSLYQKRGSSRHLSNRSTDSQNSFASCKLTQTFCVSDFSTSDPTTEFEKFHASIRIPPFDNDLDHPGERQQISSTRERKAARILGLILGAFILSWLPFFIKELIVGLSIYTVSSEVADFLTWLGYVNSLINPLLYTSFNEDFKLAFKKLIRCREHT
Description: PDSP Primary Binding target: HTR1E - Compounds are tested at 10 uM concentration, plate are incubated at room temperature in the dark for 90 minutes. Reaction are stopped by vacuum filtration onto 0.3% polyethyleneimine soaked filter mats using Filtermate harvester. Scintilation cocktail is then melted onto microwave-dried filters on a hot plate and the radio activity is counted in Microbia counter.
The target of assay [6] is Histamine H3 receptor (Homo sapiens) (UniProt Q9Y5N1).
Chain of Histamine H3 receptor (Homo sapiens) (Q9Y5N1 whole entry): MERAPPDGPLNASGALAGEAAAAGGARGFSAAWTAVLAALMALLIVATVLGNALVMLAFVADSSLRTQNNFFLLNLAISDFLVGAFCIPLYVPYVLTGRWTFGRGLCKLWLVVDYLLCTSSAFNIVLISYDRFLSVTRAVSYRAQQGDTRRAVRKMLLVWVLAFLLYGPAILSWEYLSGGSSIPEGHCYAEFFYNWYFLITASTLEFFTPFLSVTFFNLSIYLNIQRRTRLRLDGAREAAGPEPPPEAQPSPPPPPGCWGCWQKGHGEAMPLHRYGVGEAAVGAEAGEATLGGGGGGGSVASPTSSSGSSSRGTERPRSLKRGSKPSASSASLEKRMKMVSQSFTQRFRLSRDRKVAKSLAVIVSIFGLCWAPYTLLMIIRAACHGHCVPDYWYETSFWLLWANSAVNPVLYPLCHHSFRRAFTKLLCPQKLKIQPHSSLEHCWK
Description: PDSP Primary Binding target: HRH3 - Compounds are tested at 10 uM concentration, plate are incubated at room temperature in the dark for 90 minutes. Reaction are stopped by vacuum filtration onto 0.3% polyethyleneimine soaked filter mats using Filtermate harvester. Scintilation cocktail is then melted onto microwave-dried filters on a hot plate and the radio activity is counted in Microbia counter.
In assay [7] the target is T3, Alpha-2B adrenergic receptor (Homo sapiens) (UniProt P18089).
T3 sequence (whole entry): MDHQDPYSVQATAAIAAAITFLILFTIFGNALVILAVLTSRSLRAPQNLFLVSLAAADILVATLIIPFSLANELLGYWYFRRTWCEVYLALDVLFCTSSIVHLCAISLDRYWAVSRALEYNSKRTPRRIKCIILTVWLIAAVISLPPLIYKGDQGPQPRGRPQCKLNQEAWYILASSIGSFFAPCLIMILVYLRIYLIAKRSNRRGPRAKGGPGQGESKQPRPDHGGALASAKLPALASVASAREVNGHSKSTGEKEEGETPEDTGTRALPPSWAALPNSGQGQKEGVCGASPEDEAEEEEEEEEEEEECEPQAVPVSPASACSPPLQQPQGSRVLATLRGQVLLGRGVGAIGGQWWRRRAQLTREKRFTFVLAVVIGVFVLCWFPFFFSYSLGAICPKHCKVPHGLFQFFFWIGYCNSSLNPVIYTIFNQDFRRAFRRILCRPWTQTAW
Description: PDSP Primary Binding target: ADRA2B - Compounds are tested at 10 uM concentration, plate are incubated at room temperature in the dark for 90 minutes. Reaction are stopped by vacuum filtration onto 0.3% polyethyleneimine soaked filter mats using Filtermate harvester. Scintilation cocktail is then melted onto microwave-dried filters on a hot plate and the radio activity is counted in Microbia counter.

The target in assay [8] is Sigma non-opioid intracellular receptor 1 (Homo sapiens) (UniProt Q99720).
Chain of Sigma non-opioid intracellular receptor 1 (Homo sapiens) (Q99720 whole entry): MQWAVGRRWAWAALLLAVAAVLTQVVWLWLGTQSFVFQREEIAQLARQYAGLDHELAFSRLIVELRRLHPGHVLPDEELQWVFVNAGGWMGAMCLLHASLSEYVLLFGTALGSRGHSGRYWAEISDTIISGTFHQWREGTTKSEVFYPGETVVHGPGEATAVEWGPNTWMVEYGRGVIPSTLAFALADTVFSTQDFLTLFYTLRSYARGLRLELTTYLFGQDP
Description: PDSP Primary Binding target: SIGMAR1 - Compounds are tested at 10 uM concentration, plate are incubated at room temperature in the dark for 90 minutes. Reaction are stopped by vacuum filtration onto 0.3% polyethyleneimine soaked filter mats using Filtermate harvester. Scintilation cocktail is then melted onto microwave-dried filters on a hot plate and the radio activity is counted in Microbia counter.
Assay [9] deals with Translocator protein (Homo sapiens) (UniProt P30536).
Chain of Translocator protein (Homo sapiens) (P30536 whole entry): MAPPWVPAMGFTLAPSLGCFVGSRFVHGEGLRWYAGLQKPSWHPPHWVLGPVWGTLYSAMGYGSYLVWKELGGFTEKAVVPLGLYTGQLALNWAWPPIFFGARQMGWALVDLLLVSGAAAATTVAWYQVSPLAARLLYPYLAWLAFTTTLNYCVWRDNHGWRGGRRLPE
Description: PDSP Primary Binding target: TSPO - Compounds are tested at 10 uM concentration, plate are incubated at room temperature in the dark for 90 minutes. Reaction are stopped by vacuum filtration onto 0.3% polyethyleneimine soaked filter mats using Filtermate harvester. Scintilation cocktail is then melted onto microwave-dried filters on a hot plate and the radio activity is counted in Microbia counter.
In assay [10] the target is T4, Muscarinic acetylcholine receptor M2 (Homo sapiens) (UniProt P08172).
T4 sequence (whole entry): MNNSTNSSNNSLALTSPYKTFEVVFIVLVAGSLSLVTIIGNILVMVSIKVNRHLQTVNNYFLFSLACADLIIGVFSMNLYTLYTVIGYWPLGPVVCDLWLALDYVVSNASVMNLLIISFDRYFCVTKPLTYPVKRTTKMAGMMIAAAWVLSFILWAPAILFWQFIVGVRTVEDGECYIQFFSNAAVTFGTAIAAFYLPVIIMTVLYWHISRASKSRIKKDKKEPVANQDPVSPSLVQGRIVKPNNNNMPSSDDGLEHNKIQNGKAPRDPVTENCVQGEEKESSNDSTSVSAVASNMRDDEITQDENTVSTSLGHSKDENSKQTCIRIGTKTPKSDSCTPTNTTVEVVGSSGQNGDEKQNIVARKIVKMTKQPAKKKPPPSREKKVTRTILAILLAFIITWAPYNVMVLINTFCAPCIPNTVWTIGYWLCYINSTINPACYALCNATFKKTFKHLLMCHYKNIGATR
Description: PDSP Primary Binding target: CHRM2 - Compounds are tested at 10 uM concentration, plate are incubated at room temperature in the dark for 90 minutes. Reaction are stopped by vacuum filtration onto 0.3% polyethyleneimine soaked filter mats using Filtermate harvester. Scintilation cocktail is then melted onto microwave-dried filters on a hot plate and the radio activity is counted in Microbia counter.

In assay [11] the target is 5-hydroxytryptamine receptor 6 (Homo sapiens) (UniProt P50406).
Chain of 5-hydroxytryptamine receptor 6 (Homo sapiens) (P50406 whole entry): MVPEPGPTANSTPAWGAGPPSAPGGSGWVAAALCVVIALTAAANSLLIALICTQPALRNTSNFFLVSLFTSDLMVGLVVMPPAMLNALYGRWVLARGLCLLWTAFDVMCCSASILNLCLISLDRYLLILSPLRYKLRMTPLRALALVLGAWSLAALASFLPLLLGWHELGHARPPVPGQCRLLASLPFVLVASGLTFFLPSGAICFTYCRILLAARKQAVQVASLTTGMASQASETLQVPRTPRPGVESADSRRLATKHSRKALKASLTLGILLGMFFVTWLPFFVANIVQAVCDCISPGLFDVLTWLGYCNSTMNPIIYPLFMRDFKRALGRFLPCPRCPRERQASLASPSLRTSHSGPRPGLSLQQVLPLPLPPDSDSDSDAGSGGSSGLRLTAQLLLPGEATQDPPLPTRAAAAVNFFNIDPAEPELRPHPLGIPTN
Description: PDSP Primary Binding target: HTR6 - Compounds are tested at 10 uM concentration, plate are incubated at room temperature in the dark for 90 minutes. Reaction are stopped by vacuum filtration onto 0.3% polyethyleneimine soaked filter mats using Filtermate harvester. Scintilation cocktail is then melted onto microwave-dried filters on a hot plate and the radio activity is counted in Microbia counter.
In assay [12] the target is T5, Muscarinic acetylcholine receptor M5 (Homo sapiens) (UniProt P08912).
T5 sequence (whole entry): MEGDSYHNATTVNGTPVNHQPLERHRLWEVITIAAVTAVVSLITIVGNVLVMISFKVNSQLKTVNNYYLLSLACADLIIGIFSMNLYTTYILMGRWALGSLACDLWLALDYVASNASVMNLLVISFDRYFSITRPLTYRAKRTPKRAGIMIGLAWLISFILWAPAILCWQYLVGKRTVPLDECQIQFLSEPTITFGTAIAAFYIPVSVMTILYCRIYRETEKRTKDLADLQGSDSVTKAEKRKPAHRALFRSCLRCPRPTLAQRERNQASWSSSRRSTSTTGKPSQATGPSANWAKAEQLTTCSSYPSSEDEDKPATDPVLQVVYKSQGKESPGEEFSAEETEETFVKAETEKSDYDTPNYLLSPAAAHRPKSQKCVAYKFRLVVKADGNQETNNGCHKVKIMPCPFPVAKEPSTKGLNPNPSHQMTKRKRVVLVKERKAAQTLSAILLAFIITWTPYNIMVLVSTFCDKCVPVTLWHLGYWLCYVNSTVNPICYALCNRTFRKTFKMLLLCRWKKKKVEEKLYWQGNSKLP
Description: PDSP Primary Binding target: CHRM5 - Compounds are tested at 10 uM concentration, plate are incubated at room temperature in the dark for 90 minutes. Reaction are stopped by vacuum filtration onto 0.3% polyethyleneimine soaked filter mats using Filtermate harvester. Scintilation cocktail is then melted onto microwave-dried filters on a hot plate and the radio activity is counted in Microbia counter.

Assay [13] concerns the target Sodium-dependent noradrenaline transporter (Homo sapiens) (UniProt P23975).
Description: PDSP Primary Binding target: SLC6A2 - Compounds are tested at 10 uM concentration, plate are incubated at room temperature in the dark for 90 minutes. Reaction are stopped by vacuum filtration onto 0.3% polyethyleneimine soaked filter mats using Filtermate harvester. Scintilation cocktail is then melted onto microwave-dried filters on a hot plate and the radio activity is counted in Microbia counter.

Structures are written as SMILES.

Chain of Sodium-dependent serotonin transporter (Homo sapiens) (P31645 whole entry, looked up): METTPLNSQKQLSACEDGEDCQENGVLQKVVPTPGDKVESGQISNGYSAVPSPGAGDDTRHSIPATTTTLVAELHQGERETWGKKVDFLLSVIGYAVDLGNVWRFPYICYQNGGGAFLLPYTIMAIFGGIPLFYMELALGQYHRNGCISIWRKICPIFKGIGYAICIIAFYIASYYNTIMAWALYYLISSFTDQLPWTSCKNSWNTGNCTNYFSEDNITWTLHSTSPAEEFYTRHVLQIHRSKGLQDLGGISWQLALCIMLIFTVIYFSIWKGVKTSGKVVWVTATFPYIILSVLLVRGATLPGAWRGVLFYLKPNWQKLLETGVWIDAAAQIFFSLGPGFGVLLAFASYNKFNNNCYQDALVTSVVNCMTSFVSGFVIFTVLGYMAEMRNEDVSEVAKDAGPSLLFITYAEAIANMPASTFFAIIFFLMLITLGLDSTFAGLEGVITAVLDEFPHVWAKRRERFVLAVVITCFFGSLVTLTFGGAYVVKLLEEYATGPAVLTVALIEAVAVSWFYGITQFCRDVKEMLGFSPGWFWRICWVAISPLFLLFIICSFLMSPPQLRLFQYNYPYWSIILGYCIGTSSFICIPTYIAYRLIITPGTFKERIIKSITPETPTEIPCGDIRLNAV
Chain of 5-hydroxytryptamine receptor 5A (Homo sapiens) (P47898 whole entry): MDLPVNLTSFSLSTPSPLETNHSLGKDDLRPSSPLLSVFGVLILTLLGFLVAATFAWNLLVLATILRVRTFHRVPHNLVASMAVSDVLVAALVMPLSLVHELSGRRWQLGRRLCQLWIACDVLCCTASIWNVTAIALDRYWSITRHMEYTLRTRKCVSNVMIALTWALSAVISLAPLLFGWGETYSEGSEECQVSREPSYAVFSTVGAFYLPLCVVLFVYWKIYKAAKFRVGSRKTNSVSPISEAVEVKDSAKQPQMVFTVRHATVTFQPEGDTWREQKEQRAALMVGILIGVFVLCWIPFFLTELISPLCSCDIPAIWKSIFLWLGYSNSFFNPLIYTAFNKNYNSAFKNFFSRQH
Chain of Sodium-dependent noradrenaline transporter (Homo sapiens) (P23975 whole entry): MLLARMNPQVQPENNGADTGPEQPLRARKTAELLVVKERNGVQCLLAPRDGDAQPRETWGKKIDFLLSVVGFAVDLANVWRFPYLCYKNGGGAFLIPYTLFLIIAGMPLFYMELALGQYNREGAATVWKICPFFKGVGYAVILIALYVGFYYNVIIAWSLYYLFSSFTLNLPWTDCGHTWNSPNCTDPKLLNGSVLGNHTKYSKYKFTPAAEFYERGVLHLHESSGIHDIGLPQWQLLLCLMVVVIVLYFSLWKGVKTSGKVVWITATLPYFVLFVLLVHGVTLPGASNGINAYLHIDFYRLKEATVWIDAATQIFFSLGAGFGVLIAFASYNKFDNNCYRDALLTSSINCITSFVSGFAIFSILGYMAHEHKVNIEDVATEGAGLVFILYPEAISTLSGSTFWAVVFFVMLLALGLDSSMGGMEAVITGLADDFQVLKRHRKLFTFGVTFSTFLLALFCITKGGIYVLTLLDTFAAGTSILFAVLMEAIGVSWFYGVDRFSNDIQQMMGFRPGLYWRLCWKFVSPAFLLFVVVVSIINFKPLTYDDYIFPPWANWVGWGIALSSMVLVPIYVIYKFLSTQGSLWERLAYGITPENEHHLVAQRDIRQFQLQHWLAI

A word on the inhibition: it is the change of the read-out against control, counted positive when it falls. Turning to `CCC[C@H](Oc1cc(C)c(-n2cc(C(F)(F)F)cn2)c(C)c1)c1ccc(C(=O)NCCC(=O)O)cc1`, the inhibition in assay [1] is 5.06%; in assay [2] it was 8.62%; in assay [3], -5.66%; in [4], 3.44%; in assay [5], 44%; in assay [6] it was 11.1%. Besides, the inhibition in assay [7] is -4.35%; in [8], 1.84%; in assay [9], 28.7%; in [10], -6.26%; in [11] it was -2.41%; in assay [12], 70.1%.
With `CN1CCCC(n2nc(Cc3ccc(Cl)cc3)c3ccccc3c2=O)CC1` (stereo not given), the inhibition was 64.5% in assay [1]; 31.6% in assay [13]; 80.8% in [2]; 19.8% in assay [3]; 83.7% in assay [4]; 57.6% in [5]. Further, the inhibition in [6] is 28.5%; in assay [7], 79.1%; in [8], 91.9%; in assay [9], 12.9%; in [10] it was 36.1%; in assay [11], 74.7%. Moreover, the inhibition in assay [12] was 43.1%.
As for `COc1ccccc1N1CCN(CCCCNC(=O)c2ccc3ccccc3c2)CC1`, the inhibition in [1] was 111%; in assay [13], 68.2%; in [2], 76.4%; in assay [3], 83.7%; in assay [4], 0.77%; in [5] it was 27.8%. Besides, the inhibition was 49.6% in [6]; 99.5% in assay [7]; 90.4% in assay [8]; 78.8% in assay [9]; 7.22% in assay [10]; 37.4% in assay [11]. Moreover, the inhibition in assay [12] is 23.2%.
On to `CNc1nc(NCc2ccc(NS(C)(=O)=O)cc2Cl)cc(-c2ccccn2)n1`, for which the inhibition in [1] is 50.4%; in assay [13], 24%; in assay [2] it was 75.4%; in assay [3], 42.1%; in [4], 9.44%; in [5], -3.24%. The inhibition was -8.26% in assay [6]; 24.4% in assay [7]; 87.2% in assay [8]; 54.8% in [9]; -5.61% in [10]; 47% in assay [11]. Further, the inhibition in [12] is 6.84%.
As to `CCCNS(=O)(=O)Nc1ncnc(OCCOc2ncc(Br)cn2)c1-c1ccc(Br)cc1`, the inhibition in assay [1] was -8.41%; in assay [13] it was 53.5%; in [3], 67.2%; in assay [4] it was 6.06%; in assay [5] it was 42.3%; in [6], 1.52%. Also, the inhibition in assay [8] is 15.8%; in assay [9] it was 51.2%; in assay [10] it was -6.56%; in assay [11], 2.99%; in assay [12], 11.6%.
For the molecule `NCCc1c[nH]c2ccc(C(N)=O)cc12`, the inhibition in assay [1] was 15.4%; in assay [13] it was 63.2%; in [2] it was 99.4%; in [3], 49.3%; in [4] it was -6.09%; in [5] it was 65.6%. The inhibition in assay [7] was 24.8%; in assay [8], 20.2%; in assay [10], 7.09%; in assay [11] it was 88.4%; in [12], 8.53%.
For the molecule `OCc1cc(C(O)CNCCCCCCOCCCCc2ccccc2)ccc1O` (stereo not given), the inhibition was 45.6% in [1]; 98.7% in assay [13]; 9.07% in [2]; 91.4% in assay [3]; 17.4% in assay [5]; 23.3% in assay [6]. Besides, the inhibition in [7] is 74.1%; in assay [9] it was -0.39%; in [10], 3.27%; in assay [11], 18%; in assay [12], 60.2%.
With `Cc1cn2cc(CC(=O)N3CCC4(CC3)CN(Cc3ccc(-n5nccn5)cc3Cl)C4)nc2s1`, the inhibition was 35.9% in assay [1]; 44.3% in [13]; 8.61% in assay [2]; 11.6% in [3]; 87.5% in assay [4]; -2.62% in assay [5]. Further, the inhibition in assay [6] was 3.15%; in assay [7], 11%; in [8], 52.1%; in [9], 0.99%; in assay [10] it was 68.5%; in assay [11], 17.5%. Moreover, in assay [12], the inhibition is 71.8%.
For `O=C(O)CC1CCC2(CC1)CCN(c1cc(OC(F)(F)F)ccc1Cl)CC2`, the inhibition in assay [1] was 0.13%; in [13], 13.3%; in assay [3], 29.8%; in [4], 7.8%; in assay [5], 16.8%; in [6] it was 7.59%. Besides, the inhibition was -0.46% in assay [8]; 7.83% in assay [9]; 27.1% in [10]; 14.2% in [11]; -6.92% in [12].
Consider `O=c1ccc2ccc(OCCCCN3CCN(c4cccc5sccc45)CC3)cc2[nH]1`, for which the inhibition in assay [1] is 104%; in assay [13] it was 96.6%; in [2], 93.1%; in assay [3], 98.2%; in [4], 30.5%; in [5], 92.3%. The inhibition is 54.5% in [6]; 94.3% in assay [7]; -2.98% in assay [9]; -3.44% in assay [10]; 101% in assay [11]; 38.2% in assay [12].

Source of the values: ChEMBL document CHEMBL5442219.
